Experimental findings from US11731977B2, “SGC stimulators” (Cyclerion Therapeutics, Inc., priority 2016, dated 2023) are described below.

For orientation: EC50 means the concentration that produces a half-maximal response.

Some results are limits rather than exact numbers.

In this experiment the target is T1, sGC enzyme (Homo sapiens, UniProt Q02108+Q02153).
T1 construct: sGC enzyme activity values in HEK cells, determined by the GloSensor assay; host or cells: HEK293 cells stably expressing GloSensor 40F cGMP biosensor
T1 sequence (Q02153 1-619): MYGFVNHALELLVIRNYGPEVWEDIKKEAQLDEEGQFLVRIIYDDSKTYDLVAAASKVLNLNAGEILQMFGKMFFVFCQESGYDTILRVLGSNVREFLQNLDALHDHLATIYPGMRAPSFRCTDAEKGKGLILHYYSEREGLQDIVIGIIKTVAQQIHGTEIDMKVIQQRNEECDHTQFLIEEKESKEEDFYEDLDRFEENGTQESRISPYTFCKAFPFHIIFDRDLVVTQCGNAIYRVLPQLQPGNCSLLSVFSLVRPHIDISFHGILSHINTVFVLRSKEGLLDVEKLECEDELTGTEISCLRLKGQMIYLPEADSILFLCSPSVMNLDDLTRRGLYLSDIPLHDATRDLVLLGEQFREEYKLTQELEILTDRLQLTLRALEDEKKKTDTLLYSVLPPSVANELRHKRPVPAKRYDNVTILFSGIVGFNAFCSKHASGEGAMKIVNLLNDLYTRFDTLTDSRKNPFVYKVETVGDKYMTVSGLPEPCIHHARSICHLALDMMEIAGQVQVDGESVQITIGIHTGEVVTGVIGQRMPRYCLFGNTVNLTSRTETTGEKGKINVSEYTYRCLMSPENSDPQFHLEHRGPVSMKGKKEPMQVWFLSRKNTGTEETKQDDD
T1 sequence (Q02108 1-690): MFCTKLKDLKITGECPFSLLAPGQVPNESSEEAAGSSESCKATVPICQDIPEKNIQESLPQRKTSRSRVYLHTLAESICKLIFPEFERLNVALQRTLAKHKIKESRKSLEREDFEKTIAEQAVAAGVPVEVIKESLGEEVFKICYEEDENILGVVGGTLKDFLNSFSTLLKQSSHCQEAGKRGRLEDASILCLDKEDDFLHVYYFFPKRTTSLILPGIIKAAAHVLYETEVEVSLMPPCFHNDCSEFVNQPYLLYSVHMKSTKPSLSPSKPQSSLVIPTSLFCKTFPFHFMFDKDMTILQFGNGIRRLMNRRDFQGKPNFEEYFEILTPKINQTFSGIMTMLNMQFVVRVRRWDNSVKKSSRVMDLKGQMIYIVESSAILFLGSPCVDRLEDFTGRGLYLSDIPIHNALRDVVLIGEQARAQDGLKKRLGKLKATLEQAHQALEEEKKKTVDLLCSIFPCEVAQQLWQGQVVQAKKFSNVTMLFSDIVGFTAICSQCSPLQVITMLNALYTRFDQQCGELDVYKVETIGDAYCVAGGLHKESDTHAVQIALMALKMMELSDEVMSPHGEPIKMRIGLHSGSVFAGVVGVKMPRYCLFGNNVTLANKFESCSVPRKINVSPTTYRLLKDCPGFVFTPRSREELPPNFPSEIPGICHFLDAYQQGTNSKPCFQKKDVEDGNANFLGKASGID
The experiment can be described thus: cGMP GloSensor cell-based assay, 384-well format (Example 2a). The following applies: HEK293 GloSensor 40F cGMP cells; 10 μM DETA-NONOate; 50% of high control (30 μM Compound Y); read-out: Abs EC50. From the text: Human embryonic kidney cells (HEK293) cells expressing GloSensor™ 40F cGMP (Part No: CS182801, Promega) were used to evaluate the activity of test compounds. The luminescent biosensors (engineered luciferase) that were incorporated into these cells detect cGMP formed by the compounds stimulating the sGC enzyme and emit luminescence.
cGMP GloSensor cells were maintained in Dulbecco's Modification of Eagle's Medium (DMEM) supplemented with fetal bovine serum (FBS, 10% final) and hygromycine (200 ug/ml). The day before assay, cells were plated in DMEM with 10% FBS in a 50 μL volume at a density of 1.5×10^4 cells/well in a poly-D-lysine coated 384-well flat white-bottom plate (Corning Cat No 35661). Cells were incubated overnight at 37° C. in a humidified chamber with 5% CO2. The next day, medium was removed and cells were replaced with 40 ul/well of GloSensor™, 2 mM (Promega Cat No E1291). Cells were treated for 90 minutes at 25° C. to allow the substrate to equilibrate in the cells. Test compounds and Diethylenetriamine NONOate (DETA-NONOate, or DETA-NO) was diluted to 3 mM (20×) in serum-free CO2 independent medium and serially diluted at 4× dilutions to create 5× dose curve from which 10 ul was added to the wells (x μM concentration for test compound solution and 10 μM concentration for DETA-NONOate solution; wherein x is one of the following final concentrations: 30000 nM, 7500 nM, 1875 nM, 468.8 nM, 117.2 nM, 29.29 nM, 7.320 nM, 1.830 nM, 0.460 nM, 0.114 nM, and 0.029 nM).
For the kinetics studies, luminescense was measured right away for 0.2 sec per well with Envision (Perkin Elmer). For endpoint SAR screening, data were collected after 55 min incubation at room temperature.
Data were normalized to a high control using the following equation: 100*(Sample−Low Control)/(High Control−Low Control), where the low control is the average of 16 samples treated with 1% DMSO, and the high control is the average of 16 samples treated with 30 μM of Compound Y depicted below. Data were fit using a 4-parameter fit (log(agonist) vs. response—variable slope) using GraphPad Prism Software v.5. n=2 for all compounds. The Absolute (Abs) EC50 was interpolated from the curve fit and is defined as the concentration at which a given compound elicits 50% of the high control response after data normalization as indicated above. Compounds failing to elicit a minimum response of 50% are reported as >30 μM or ND. For compounds run in duplicate or n higher than 2, the result herein given is the geometric mean of the several results obtained.
On to `Fc1ccccc1Cc1nc(-c2nc(C3CC3(F)F)n[nH]2)cn2ccnc12` (racemic) [Compound I-64, rac-6-(3-(2,2-Difluorocyclopropyl)-1H-1,2,4-triazol-5-yl)-8-(2-fluorobenzyl)imidazo[1,2-a]pyrazine], for which the concentration for a half-maximal effect (EC50) lay in the range of 100 to 1000 nM. Then `Cc1n[nH]c(-c2cn3ccnc3c(Cc3ccccc3F)n2)n1` [Compound I-4, 8-(2-fluorobenzyl)-6-(3-methyl-1H-1,2,4-triazol-5-yl)imidazo[1,2-a]pyrazine], with 100 to 1000 nM.

Turning to `Fc1cccc(Cc2nc(-c3nc(C(F)F)n[nH]3)cn3ncnc23)c1F` [Compound I-17, 8-(2,3-Difluorobenzyl)-6-(3-(difluoromethyl)-1H-1,2,4-triazol-5-yl)-[1,2,4]triazolo[1,5-a]pyrazine], the EC50 is at most 100 nM. Turning to `Fc1cccc(Cc2nc(-c3nc(C(F)(F)F)n[nH]3)cn3ncnc23)c1F` [Compound I-18, 8-(2,3-Difluorobenzyl)-6-(3-(trifluoromethyl)-1H-1,2,4-triazol-5-yl)-[1,2,4]triazolo[1,5-a]pyrazine], the EC50 was at most 100 nM. Next, `Fc1cccc(F)c1Cc1nc(-c2nc(C(F)(F)F)n[nH]2)cn2ccnc12` [Compound I-19, 8-(2,6-Difluorobenzyl)-6-(3-(trifluoromethyl)-1H-1,2,4-triazol-5-yl)imidazo[1,2-a]pyrazine]: over 1000 nM; `Fc1cccc(F)c1Cc1nc(-c2nc(C(F)F)n[nH]2)cn2ccnc12` [Compound I-20, 8-(2,6-Difluorobenzyl)-6-(3-(difluoromethyl)-1H-1,2,4-triazol-5-yl)imidazo[1,2-a]pyrazine]: over 1000 nM; `Fc1cccc(Cc2nc(-c3nc(C(F)F)n[nH]3)cn3ncnc23)c1` [Compound I-21, 6-(3-(Difluoromethyl)-1H-1,2,4-triazol-5-yl)-8-(3-fluorobenzyl)-[1,2,4]triazolo[1,5-a]pyrazine]: at most 100 nM.

As to `Fc1cccc(Cc2nc(-c3nc(C(F)(F)F)n[nH]3)cn3ncnc23)c1` [Compound I-22, 8-(3-Fluorobenzyl)-6-(3-(trifluoromethyl)-1H-1,2,4-triazol-5-yl)-[1,2,4]triazolo[1,5-a]pyrazine], the concentration for a half-maximal effect (EC50) was at most 100 nM. In the case of `Fc1ccc(F)c(Cc2nc(-c3nc(C(F)F)n[nH]3)cn3ncnc23)c1` [Compound I-23, 8-(2,5-Difluorobenzyl)-6-(3-(difluoromethyl)-1H-1,2,4-triazol-5-yl)-[1,2,4]triazolo[1,5-a]pyrazine], the EC50 is at most 100 nM.

In the case of `Fc1cc(F)cc(Cc2nc(-c3nc(C(F)(F)F)n[nH]3)cn3ncnc23)c1` [Compound I-24, 8-(3,5-Difluorobenzyl)-6-(3-(trifluoromethyl)-1H-1,2,4-triazol-5-yl)-[1,2,4]triazolo[1,5-a]pyrazine], the EC50 was at most 100 nM. Then `Fc1cc(F)cc(Cc2nc(-c3nc(C(F)F)n[nH]3)cn3ncnc23)c1` [Compound I-25, 8-(3,5-Difluorobenzyl)-6-(3-(difluoromethyl)-1H-1,2,4-triazol-5-yl)-[1,2,4]triazolo[1,5-a]pyrazine], with at most 100 nM.

Consider `Fc1ccccc1Cc1nc(-c2nc(C(F)F)n[nH]2)cn2ncnc12` [Compound I-26, 6-(3-(Difluoromethyl)-1H-1,2,4-triazol-5-yl)-8-(2-fluorobenzyl)-[1,2,4]triazolo[1,5-a]pyrazine], for which the EC50 was at most 100 nM.

With `Fc1cc(F)cc(Cc2nc(-c3nc(C(F)(F)F)n[nH]3)cn3ccnc23)c1` [Compound I-29, 8-(3,5-Difluorobenzyl)-6-(3-(trifluoromethyl)-1H-1,2,4-triazol-5-yl)imidazo[1,2-a]pyrazine], the EC50 was at most 100 nM.

With `Fc1cc(F)cc(Cc2nc(-c3nc(C(F)F)n[nH]3)cn3ccnc23)c1` [Compound I-30, 8-(3,5-Difluorobenzyl)-6-(3-(difluoromethyl)-1H-1,2,4-triazol-5-yl)imidazo[1,2-a]pyrazine], the 50% effective concentration (EC50) is at most 100 nM. Next, `Cc1cn2cc(-c3nc(C(F)(F)F)n[nH]3)nc(Cc3ccccc3F)c2n1` [Compound I-31, 8-(2-Fluorobenzyl)-2-methyl-6-(3-(trifluoromethyl)-1H-1,2,4-triazol-5-yl)imidazo[1,2-a]pyrazine]: 100 to 1000 nM; `Cc1cn2cc(-c3nc(C(F)F)n[nH]3)nc(Cc3ccccc3F)c2n1` [Compound I-32, 6-(3-(Difluoromethyl)-1H-1,2,4-triazol-5-yl)-8-(2-fluorobenzyl)-2-methylimidazo[1,2-a]pyrazine]: over 1000 nM. Next, `Fc1ccc(F)c(Cc2nc(-c3nc(C(F)(F)F)n[nH]3)cn3ncnc23)c1` [Compound I-33, 8-(2,5-Difluorobenzyl)-6-(3-(trifluoromethyl)-1H-1,2,4-triazol-5-yl)-[1,2,4]triazolo[1,5-a]pyrazine]: at most 100 nM; `Cc1c(F)cc(Cc2nc(-c3nc(C(F)(F)F)n[nH]3)cn3ccnc23)cc1F` [Compound I-34, 8-(3,5-Difluoro-4-methylbenzyl)-6-(3-(trifluoromethyl)-1H-1,2,4-triazol-5-yl)imidazo[1,2-a]pyrazine]: at most 100 nM; `Cc1c(F)cc(Cc2nc(-c3nc(C(F)F)n[nH]3)cn3ccnc23)cc1F` [Compound I-35, 8-(3,5-Difluoro-4-methylbenzyl)-6-(3-(difluoromethyl)-1H-1,2,4-triazol-5-yl)imidazo[1,2-a]pyrazine]: at most 100 nM.

On to `Cn1cnc2c(Cc3ccccc3F)nc(-c3nc(C(F)(F)F)n[nH]3)cc21` [Compound I-36, 4-(2-Fluorobenzyl)-1-methyl-6-(3-(trifluoromethyl)-1H-1,2,4-triazol-5-yl)-1H-imidazo[4,5-c]pyridine], for which the EC50 is over 1000 nM.

As to `Cn1cnc2c(Cc3ccccc3F)nc(-c3nc(C(F)(F)F)n[nH]3)nc21` [Compound I-37, 6-(2-Fluorobenzyl)-9-methyl-2-(3-(trifluoromethyl)-1H-1,2,4-triazol-5-yl)-9H-purine], the EC50 is over 1000 nM. Then `Cc1nc(-c2cn3ccnc3c(Cc3ccccc3F)n2)nn1CC(F)(F)F` [Compound I-38, 8-(2-fluorobenzyl)-6-(5-methyl-1-(2,2,2-trifluoroethyl)-1H-1,2,4-triazol-3-yl)imidazo[1,2-a]pyrazine], with at most 100 nM.
